Entries after “also recorded” stand apart in the source; their conditions may differ.
Legend:
[1] = tested on: humans and other mammals; settings: cited from earlier work
[2] = tested on: Type I diabetic subjects; assay: Sustacal meal preceded by subcutaneous GLIP in Type I diabetics (Example 5); type: in vivo, human; settings: 100 μg GLIP subcutaneously prior to Sustacal meal
Text: Type I diabetic subjects were studied.
The results are shown in FIG. 5. indicates statistically significant differences between treatments (p<0.05).

[3] = tested on: Type 1 diabetic subject; assay: Subcutaneous GLIP along with insulin before Sustacal meal (Example 6)
Protocol: One Type 1 diabetic subject was given GLIP along with insulin and the effects on post-prandial glycaemia observed. The subject received 5 units of insulin and 50 μg GLIP as subcutaneous injections immediately prior to ingestion of a Sustacal meal as described in Example 1. Blood levels of GLIP were monitored by a standard radioimmunoassay method.

[4] = tested on: normal volunteers; assay: Sustacal meal preceded by subcutaneous GLIP in normal volunteers (Example 4); type: in vivo, human
Text: Results are shown in FIG. 4. *indicates statistically significant differences between treatments (p<0.05).

[5] = tested on: subjects with remission phase Type I diabetes; assay: Sustacal meal with intravenous GLIP infusion (Example 1); type: in vivo, human
Protocol: 7 subjects with remission phase Type I diabetes were studied after ingestion of a standardised meal of Sustacal (Upjohn) (delivering […]). Subjects continued their normal insulin treatment programme on the day prior to the test and, on the day of the test, omitted their morning insulin injection and arrived fasting at 8:00 am. […] Infusion was continued for 120 minutes. Blood levels of glucose, C-peptide, gastrin, glucagon and HPP were monitored by standard radioimmunoassay methods in samples taken before and at intervals during the study, up to 180 minutes. On another test day, subjects were given the Sustacal meal alone and the same analytes were similarly monitored.

[6] = tested on: Type II diabetics; settings: cited from earlier work
[7] = tested on: subjects with remission phase Type I diabetes; assay: Sustacal meal with lower-dose GLIP infusion (Example 3); type: in vivo, human; settings: infusion 0.75 pmol/kg/min for 120 minutes after Sustacal meal, versus saline infusion; FIG. 3
Protocol: Four subjects with remission phase Type I diabetes were studied during infusion with 0.75 pm/kg/min-GLIP for 120 minutes after a Sustacal meal.
The test was conducted as described in Example 1 and blood glucose and C-peptice levels were measured. On a further test day, the subjects were studied during saline infusion after a similar Slistacal meal.

[8] = subcutaneous injection of 00 gg GLIP immediately before Sustacal meal

Substance: Glucagon-like peptide 1(7-36)amide [GLIP]
- gastric emptying [1]: delay of gastric emptying
- blood glucose levels compared to control (no GLIP) ([2]; morning insulin omitted, FIG. 5 Panel A): lowering of blood glucose levels
- pancreatic polypeptide (HPP) levels ([2]; FIG. 5 Panel D): delayed rise in pancreatic polypeptide (HPP) levels
- insulin secretion over control levels ([2]; FIG. 5 Panels B and C): no enhancement of insulin secretion over control levels
- clearance of GLIP from the blood ([3]; 50 μg GLIP subcutaneously with 5 units insulin, radioimmunoassay, FIG. 6 Panel E): cleared from the blood in about two hours
- blood glucose after standard meal ([3]; 50 gg GLIP with 5 units insulin (half the usual dose) subcutaneously before Sustacal meal, one subject, FIG. 6 Panel A): ≤ 8 mM
- delays in increase in blood levels of glucose, HPP, C-peptide and insulin ([4]; experiment repeated with 50 Ag dose of GLIP): proportionally shorter
- delays in increase in blood levels of glucose, HPP, C-peptide and insulin ([4]; experiment repeated with 200 Ag dose of GLIP): longer
- increase in blood levels of C-peptide [4, 8]: delay in increase
- increase in blood levels of HPP [4, 8]: delay in increase
- increase in blood levels of glucose [4, 8]: delay in increase
- increase in blood levels of insulin [4, 8]: delay in increase
- gastrin response / gastrin levels ([5]; IV infusion 1.2 pm/kg/min after Sustacal meal, FIG. 1 Panel E): normal ga.trin response; also recorded: not significantly affected
- blood glucose level after a meal ([5]; IV infusion 1.2 pm/kg/min for 120 minutes after Sustacal meal, FIG. 1 Panel A): excellent control of blood glucose level
- secretion of pancreatic polypeptide (PP) after Sustacal meal ([5]; IV infusion 1.2 pm/kg/min, FIG. 1 Panel C): this response was absent during GLIP infusion
- effect between the peptide and oral hypoglycaemic agents [6]: synergistic effect
- increase in blood glucose [7]: increase in glucose was less than in the control experiment
- rise in C-peptide [7]: rise in C-peptide was similar to the control experiment

Reference: patent publication US20020119146A1, “TREATMENT OF DIABETES” (priority 1994, published 2002)
